Results taken from patent publication EP4818189A1, “NITROGEN-CONTAINING HETEROCYCLIC COMPOUND, AND PREPARATION METHOD AND USE THEREFOR” (Chengdu Di'ao Pharmaceutical Group Co., Ltd., priority 2023, dated 2025).
Each block holds one compound with its values, some of them ahead of it. Where a SMILES comes first, the peptide text is derived from it. [ ]: non-standard residue; d: D form. ξ: configuration not given here. ξAze = O=C(O)C1CCN1

Tests used:
[1] = Plasma stability determination; format: in vitro ADME; settings: mouse
Protocol: Mouse plasma (purchased from IPHASE, Batch No. 23B007) was thawed in a 37°C water bath, centrifuged to remove an upper clot, and the pH value was recorded as 7-8. An appropriate volume of stock solution of test compound in acetonitrile (at a concentration of 10 mM) was diluted with acetonitrile to 1 mM, so as to serve as a test drug solution. An appropriate volume of test drug solution was added to a corresponding volume of plasma and mixed uniformly, such that the concentration of the test compound in the incubation system was 5 µM, and the content of the organic solvent acetonitrile was 0.5%. 50 µL of mixed plasma was transferred into a 96-well plate (N=2), incubated at 37°C in a water bath for a designated time, and then added with 300 µL of internal standard-containing methanol solution to terminate the reaction. The reaction mixture was vortexed and centrifuged, and the supernatant was subjected to LC-MS/MS analysis. Propantheline and ZZL-7 were used as positive controls, and processed and tested under the same conditions as the test compound. A curve was plotted with the remaining percentage of the compound against incubation time to obtain a k value, and the half-life of each compound was calculated.

[2] = Permeability detection in MDR1-MDCK II cell monolayer; format: in vitro ADME; settings: dog, pH 7.4, MDR1-MDCK II cells, 2 µM, 2.5 hours; for Papp A→B at 2.5 h, 2 µM: apical to basolateral; for Papp B→A at 2.5 h, 2 µM: basolateral to apical
Protocol: (§1) MDR1-MDCK II cells (imported from the Netherlands Cancer Institute) were seeded in a 96-well cell plate at a density of 3.33×10^5 cells/mL, and cultured in a carbon dioxide incubator for 4-7 days to form a cell monolayer. A Hank's balanced salt solution (HBSS, pH 7.40 ± 0.05) containing 10.0 mM 4-(2-hydroxyethyl)-1-piperazineethanesulfonic acid (HEPES) was used as a transport buffer. A DMSO stock solution of compound was diluted to 2 µM (DMSO < 1.0%) with the transport buffer, and added to the basolateral (B) side and apical (A) side respectively (N=2). The bidirectional (A-B and B-A) incubation concentration of Digoxin, a P-gp substrate, was 10 µM, and the unidirectional (A-B) incubateion concentrations of Nadolol, a low-permeability control, and Metoprolol, a high-permeability control, were 2 µM. The cell plate was incubated in a 5% CO2 cell incubator at 37°C and saturated humidity for 2.5 hours, then final samples from a receiver side and a donor side were collected, added with the transport buffer and a precipitant at an appropriate ratio, and analyzed by LC-MS/MS, and an apparent permeability coefficient, an efflux ratio and a solution recovery were calculated.
(§2) After the transport experiment was completed, an integrity of the MDR1-MDCK II cell layer was detected by a lucifer yellow detection experiment. Residual solution in apical and basolateral wells was removed, and 75 µL of transport buffer containing 100 µM lucifer yellow was added to the apical wells and 250 µL of transport buffer was added to the basolateral wells respectively. The cell plate was incubated in a 5% CO2 cell incubator at 37 °C and saturated humidity for 30 minutes, then 20 µL of sample was taken from the apical side and mixed with 60 µL of transport buffer and 80 µL of sample was taken from the basolateral side. A relative fluorescence intensity was detected by a microplate reader at excitation/emission wavelengths of 425/528 nm, and the permeability of Lucifer Yellow was calculated.
(§3) The apparent permeability coefficient (Papp), efflux ratio (ER) and %solution recovery were respectively calculated by following formulas: Papp = (VR)/(Area × Time) × ([drug]receiver)/([drug]initial,donor) = (VR)/(Area × Time) × (CR)/(C0) [formula] Efflux Ratio = (Papp (B−A))/(Papp (A−B)) [formula] %Solution Recovery = (CR × VR + CD × VD)/(C0 × VD) × 100 [formula]
(§4) VR was the volume of solution in the receiver side (0.075 mL for the apical side and 0.25 mL for the basolateral side respectively), VD was the volume of solution in the donor side (0.075 mL for the apical side and 0.25 mL for the basolateral side respectively), CR was the peak area ratio of compound in the receiver side, CD was the peak area ratio of compound in the donor side, C0 was the initial peak area ratio of compound in the donor side, Area was the surface area (0.143 cm^2) of the cell monolayer, and Time was incubation time of 9000 seconds (150 minutes). Papp(B-A) and Papp(A-B) respectively referred to the apparent permeability coefficient from the basolateral side to the apical side and the apparent permeability coefficient from the apical side to the basolateral side.
(§5) The permeability of Lucifer Yellow(%Lucifer Yellow) was calculated by the following formula: %Lucifer Yellow = (VBasolateral × RFUBasolateral)/(VApical × RFUApical + VBasolateral × RFUBasolateral) × 100 [formula]
(§6) RFUApical and RFUBasolareral respectively referred to relative fluorescence intensities of lucifer yellow in the apical side and the basolateral side. VApical and VBasolateral respectively referred to loading volumes (0.075 mL and 0.25 mL respectively) in the apical side and the basolateral side. Table 2 Permeability data of some compounds

MDR1-MDCK II cells = assay: as above; format: in vitro ADME; settings: permeability rank
Protocol: as §1, §2, §3, §4, §5, §6

[3] = Mouse pharmacokinetic detection; format: in vivo; settings: CD1 mice; for AUC(0-t): oral gavage 10 mg/kg; for bioavailability: oral gavage 10 mg/kg vs intravenous 10 mg/kg
Protocol: The detection was carried out in 6-8-week-old CD1 mice (purchased from: Speifu (Beijing) Biotechnology Co., Ltd.). […] The concentration of the compound in a plasma sample was analyzed by LC-MS/MS. Pharmacokinetic calculation was carried out by using WinNonlin (Phoenix™, Version 8.3) or other similar software. The following pharmacokinetic parameters were calculated based on plasma concentration and time data: Oral administration: AUClast, bioavailability (F). Statistical calculation was carried out on the above parameter data. Table 3 Pharmacokinetic data of some compounds administered orally in mice

CUMS model mice [4] = assay: Tail suspension test in CUMS model mice, oral administration; format: in vivo, C57/B6 mice; settings: single oral dose 25 mg/kg, test 2 hours later (FIG. 1, FIG. 2)
Excerpt: (§7) 6-8-week-old C57/B6 mice (purchased from: Jinan Pengyue Laboratory Animal Breeding Co., Ltd.) were used to establish a 28-day chronic unpredictable mild stress (CUMS) animal model, and an experimental procedure referred to document description^[1,2]. After one week of acclimatization, seven experiments, including food and water deprivation, foot shock, wet bedding, cage tilting, restraint stress, shaker stress, and olfactory stimulation, were randomly applied to the animals within one week to achieve unpredictability, and the stimulation was continued for 4 consecutive weeks. The successful establishment of the model was verified by an open field test (OFT)^[3], and then pharmacodynamic evaluation was carried out. The animals were divided into a blank control group (Control), a model group (Model), a vehicle control group (Vehicle), a fluoxetine control group, ZZL-7 experimental group and a compound group in the experiment. The test compound was orally administered once at a dose of 25 mg/kg, a tail suspension test (TST)^[4,5] was carried out 2 hours later to evaluate the depression of the mice, and prolonged immobility time in the TST indicated behavioral despair of the mice. After summary statistics of data, SPSS data statistics software was used for analysis, and Graph Pad software was used for graph generation based on SPSS analysis results.

CUMS model mice [5] = assay: Forced swimming test in CUMS model mice, intravenous administration; format: in vivo, C57/B6 mice; settings: single i.v. dose 100 mg/kg, test 2 hours later (FIG. 3)
Excerpt: as §7, with “control” for “control group, ZZL-7 experimental”, “intravenously (i.v.)” for “orally”, “100” for “25”, “(TST) and a forced swimming test (FST)^[4,5] were” for “(TST)^[4,5] was”, “TST and the FST” for “TST”

CUMS model mice [6] = assay: Tail suspension test in CUMS model mice, intravenous administration; format: in vivo, C57/B6 mice; settings: single i.v. dose 100 mg/kg, test 2 hours later (FIG. 4)
Excerpt: as §7, with “control” for “control group, ZZL-7 experimental”, “intravenously (i.v.)” for “orally”, “100” for “25”, “(TST) and a forced swimming test (FST)^[4,5] were” for “(TST)^[4,5] was”, “TST and the FST” for “TST”

[7] = Rat pharmacokinetic detection; format: in vivo; settings: plasma, male SD rats
Protocol: The detection was carried out in 6-8-week-old male SD rats (purchased from:SPF (Beijing) Biotechnology Co., Ltd.). A test compound was dissolved in a solution containing 10% DMSO, 15% Solutol HS and 75% (aqueous solution of 10% hydroxypropyl-β-cyclodextrin), and administered via intravenous injection (10 mg/kg) or oral gavage (15 mg/kg). A concentration of the compound in a plasma sample was analyzed by LC-MS/MS. Pharmacokinetic calculation was carried out by using WinNonlin (Phoenix™, Version 8.3). The following pharmacokinetic parameters were calculated based on plasma concentration and time data: Oral administration: AUClast, bioavailability (F). Statistical calculation was carried out on the above parameter data. Table 4 Pharmacokinetic data of some compounds administered orally in rats

Compound: CC(=O)N1CC[C@@H]1C(=O)N[C@H](c1ncco1)C(C)C [B-2-41]
half-life at 5 µM [1]: > 4.82 h
Papp A→B at 2.5 h, 2 µM [2]: 4.07 ×10⁻⁶ cm/s
Papp B→A at 2.5 h, 2 µM [2]: 5.61 ×10⁻⁶ cm/s
Rank Papp (MDR1-MDCK II cells): Moderate
AUC(0-t) ([3]; plasma): 11600 ng·h/mL
bioavailability ([3]; plasma): 90%
immobility time in the tail suspension test (CUMS model mice [4]): rapidly reverse the prolonged immobility time

AUC(0-t) ([3]; plasma): 3130 ng·h/mL
bioavailability ([3]; plasma): 156%
Compound: COC(=O)[C@@H](NC(=O)C1CCN1C(C)=O)C(C)C (some centres unmarked) [A-2-1] (Ac-[ξAze]-Val-OMe)
immobility time in the forced swimming test (CUMS model mice [5]): rapidly reverse the prolonged immobility time
immobility time in the tail suspension test (CUMS model mice [6]): rapidly reverse the prolonged immobility time

Compound: [2H]C([2H])([2H])C(=O)N1CC[C@@H]1C(=O)N[C@H](c1ncco1)C(C)C [B-2-3]
Papp A→B at 2.5 h, 2 µM [2]: 2.42 ×10⁻⁶ cm/s
Papp B→A at 2.5 h, 2 µM [2]: 3.22 ×10⁻⁶ cm/s
Rank Papp (MDR1-MDCK II cells): Moderate
AUC(0-t) ([3]; plasma): 10900 ng·h/mL
bioavailability ([3]; plasma): 159%
AUC(0-t) ([7]; oral gavage 15 mg/kg): 24300 ng·h/mL
bioavailability ([7]; oral gavage 15 mg/kg vs intravenous 10 mg/kg): 66%
immobility time in the tail suspension test (CUMS model mice [4]): rapidly reverse the prolonged immobility time

AUC(0-t) ([3]; in vivo): 154 ng·h/mL
bioavailability ([3]; in vivo): 27.3%
Compound: COC(=O)[C@@H](NC(=O)c1ccc[nH]1)C(C)C [A-1-7]
immobility time in the forced swimming test (CUMS model mice [5]): rapidly reverse the prolonged immobility time
immobility time in the tail suspension test (CUMS model mice [6]): rapidly reverse the prolonged immobility time
